Data set [1] has as its system ATH-8 cell line. As to the kind of experiment: Concentration required to inhibit the cytopathic effect of HIV-1 on ATH8 cells. The format is functional, Human immunodeficiency virus 1. As to conditions: Homo sapiens, read-out: ED50 (the source's name). For orientation: Damage to the host cells serves as the signal in cytopathic effect assays.
Data set [2] has as its system ATH-8 cell line. As to the kind of experiment: In Vitro evaluation for the anti-viral activity Drug concentrations required to inhibit the cytopathic effect of HIV-2 on ATH8 cells. The format is functional. As to conditions: Homo sapiens, read-out: ED50 (the source's name).
The test system of data set [3] is ATH-8 cell line. Put plainly: Concentration required to suppress the growth of target ATH8 cells. As to conditions: Homo sapiens, read-out: CD50 (the source's name). The format is functional.
Data set [4] is described as follows: (§1) ratio of CD50/ED50. The format is functional.
The subject of data set [5] is ATH-8 cell line. Described as §1. The format is functional.
Data set [6] has as its system ATH-8 cell line. Put plainly: In vitro evaluation for the anti-viral activity by taking the drug concentrations required to suppress the growth of target ATH8 cells. The format is functional. As to conditions: Homo sapiens, read-out: CD50 (the source's name).
In data set [7] the test system is ATH-8 cell line. As to the kind of experiment: Ratio of CD50/ED50. The format is functional.
Data set [8] concerns ATH-8 cell line. Put plainly: In vitro evaluation for the anti-viral activity Drug concentrations required to inhibit the cytopathic effect of HIV-1on ATH8 cells. The format is functional. The following applies: Homo sapiens, read-out: ED50 (the source's name).
Data set [9] can be described thus: Compound was evaluated for the partition coefficient measured for 1-octanol and 0.01 M potassium phosphate buffer (pH 7.0). The format is physicochemical. As to conditions: octanol/water.

In the case of `OC[C@@H]1CC[C@H](n2cnc3c(Cl)ncnc32)O1`, the EC50 with ATH-8 cell line [1] is 6.9 µM; in the data set with ATH-8 cell line [2], 42 µM. Besides, the CC50 with ATH-8 cell line [3] was determined as 164 µM.
As for `O=c1[nH]c(=O)c2ncn([C@H]3CC[C@@H](CO)O3)c2[nH]1`, the EC50 in the data set on ATH-8 cell line [1] was more than 200 µM. Further, the CC50 with ATH-8 cell line [3] is more than 200 µM.
Turning to `OCC1CCC(n2cnc3c(I)ncnc32)O1` (configuration not stated), in the data set on ATH-8 cell line [1], the EC50 was determined as 46 µM. Besides, the CC50 in the data set on ATH-8 cell line [3] was 86 µM.
With `Nc1nc(I)c2ncn(C3CCC(CO)O3)c2n1` (configuration not stated), the EC50 in the data set on ATH-8 cell line [1] turned out to be 7.9 µM. In the data set on ATH-8 cell line [3], the CC50 came out at 210 µM.
On to `OC[C@@H]1CC[C@H](n2cnc3c(F)ncnc32)O1`, for which the figures for the EC50 in the data set on ATH-8 cell line [1] and with ATH-8 cell line [2] were 2.8 µM and 16 µM, respectively. Moreover, in the data set on ATH-8 cell line [3], the CC50 worked out at 190 µM.
As to `OCC1CCC(n2cnc3c(Br)ncnc32)O1` (configuration not stated), the EC50 in the data set on ATH-8 cell line [1] turned out to be 7.7 µM. In addition, in the data set on ATH-8 cell line [3], the CC50 came to 96 µM.
With `Nc1nc(Cl)c2ncn([C@H]3CC[C@@H](CO)O3)c2n1`, the EC50 with ATH-8 cell line [1] was 5.5 µM; in the data set on ATH-8 cell line [2] it was 12.5 µM. In the data set on ATH-8 cell line [3], the CC50 was more than 300 µM.
For `OC[C@@H]1CC[C@H](n2cnc3c(Cl)nc(Cl)nc32)O1`, the EC50 with ATH-8 cell line [1] was more than 200 µM. The Ratio in data set [4] was less than 0.2. In the data set with ATH-8 cell line [3], the CC50 turned out to be 36 µM.
Consider `OCC1CCC(n2cnc3c(S)ncnc32)O1` (configuration not stated), for which the EC50 in the data set on ATH-8 cell line [1] was more than 200 µM. Further, in the data set on ATH-8 cell line [5], the Ratio was less than 0.8. In addition, in the data set with ATH-8 cell line [3], the CC50 was determined as 150 µM.
Take `Nc1nc(S)c2ncn(C3CCC(CO)O3)c2n1` (configuration not stated): in the data set with ATH-8 cell line [6], the CC50 is 9 µM. In addition, the Ratio in the data set with ATH-8 cell line [7] was less than 0.1. Further, the EC50 in the data set with ATH-8 cell line [8] is more than 200 µM.
`Cc1cn([C@H]2C[C@H](N=[N+]=[N-])[C@@H](CO)O2)c(=O)[nH]c1=O` [ZIDOVUDINE]: the EC50 in the data set with ATH-8 cell line [1] came to 5 µM. Besides, the Ratio in the data set with ATH-8 cell line [7] is on record as 4. The CC50 with ATH-8 cell line [3] is more than 20 µM. Moreover, the Partition coefficient in data set [9] was 1.12.
With `Nc1nc(Br)c2ncn(C3CCC(CO)O3)c2n1` (configuration not stated), the EC50 in the data set on ATH-8 cell line [1] stood at 6.9 µM. Also, the CC50 in the data set on ATH-8 cell line [3] was more than 300 µM.
For `Nc1nc2c(ncn2[C@H]2CC[C@@H](CO)O2)c(=O)[nH]1`, in the data set on ATH-8 cell line [1], the EC50 worked out at 3.5 µM. Also, in the data set with ATH-8 cell line [5], the Ratio is more than 257. The CC50 with ATH-8 cell line [3] was more than 900 µM. Moreover, the Partition coefficient in [9] is on record as 0.08.
As to `Nc1nc(F)c2ncn([C@H]3CC[C@@H](CO)O3)c2n1`, the EC50 is 2.4 µM in the data set with ATH-8 cell line [1] and 14.5 µM with ATH-8 cell line [2]. For the same compound, the CC50 with ATH-8 cell line [3] is more than 300 µM.
For `O=c1[nH]cnc2c1ncn2[C@H]1CC[C@@H](CO)O1` [DIDANOSINE], the EC50 in the data set on ATH-8 cell line [1] is 5.6 µM. In addition, the Ratio with ATH-8 cell line [5] was more than 161. The CC50 in the data set with ATH-8 cell line [3] is more than 900 µM. The Partition coefficient in data set [9] stood at 0.05.
`Nc1ncc2ncn([C@H]3CC[C@@H](CO)O3)c2n1`: the EC50 in the data set on ATH-8 cell line [1] was more than 200 µM. Moreover, the CC50 with ATH-8 cell line [3] was more than 200 µM.
As for `OC[C@@H]1CC[C@H](n2cnc3cncnc32)O1`, in the data set with ATH-8 cell line [1], the EC50 is more than 200 µM. Besides, the CC50 in the data set with ATH-8 cell line [3] is more than 200 µM.

(Values after ChEMBL document CHEMBL1125691, “Escherichia coli mediated biosynthesis and in vitro anti-HIV activity of lipophilic 6-halo-2',3'-dideoxypurine nucleosides” (J Med Chem, 1991).)
